Experimental data reported in article PMC9090415, “Discovery of small molecule inhibitors of Plasmodium falciparum apicoplast DNA polymerase” (Journal of Enzyme Inhibition and Medicinal Chemistry, 2022).

Biological target: T1, bacteriophage T4 DNA polymerase (Enterobacteria phage T4, UniProt P04415)
T1 construct: made in house
T1 sequence (P04415 1-898): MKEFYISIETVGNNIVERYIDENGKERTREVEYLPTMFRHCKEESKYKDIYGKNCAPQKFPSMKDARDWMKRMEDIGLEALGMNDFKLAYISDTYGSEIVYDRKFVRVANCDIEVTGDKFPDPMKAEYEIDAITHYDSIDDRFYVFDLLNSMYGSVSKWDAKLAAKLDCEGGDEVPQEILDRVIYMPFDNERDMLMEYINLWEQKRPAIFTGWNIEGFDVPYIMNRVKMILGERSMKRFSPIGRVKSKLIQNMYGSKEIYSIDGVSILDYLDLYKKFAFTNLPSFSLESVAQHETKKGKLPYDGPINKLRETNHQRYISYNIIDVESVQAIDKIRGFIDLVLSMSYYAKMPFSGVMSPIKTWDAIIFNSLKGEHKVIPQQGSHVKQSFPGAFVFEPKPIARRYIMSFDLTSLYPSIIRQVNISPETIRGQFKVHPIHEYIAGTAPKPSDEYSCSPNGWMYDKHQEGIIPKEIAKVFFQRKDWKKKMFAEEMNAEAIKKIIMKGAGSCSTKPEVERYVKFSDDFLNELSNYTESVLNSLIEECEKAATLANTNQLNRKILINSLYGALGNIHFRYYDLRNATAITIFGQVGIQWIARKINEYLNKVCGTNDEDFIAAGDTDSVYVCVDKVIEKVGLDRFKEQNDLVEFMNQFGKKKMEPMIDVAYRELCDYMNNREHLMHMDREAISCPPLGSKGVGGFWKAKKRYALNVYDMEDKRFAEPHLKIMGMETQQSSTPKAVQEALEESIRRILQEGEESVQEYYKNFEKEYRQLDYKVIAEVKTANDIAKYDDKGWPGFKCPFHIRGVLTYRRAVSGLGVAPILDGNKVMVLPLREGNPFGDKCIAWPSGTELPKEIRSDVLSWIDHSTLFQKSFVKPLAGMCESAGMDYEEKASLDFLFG
Test: Counter-screen against bacteriophage T4 DNA polymerase
Type: biochemical
Conditions: for % inhibition T4 10' 2.5 / % inhibition T4 10' 5 / % inhibition T4 10' 10 / % inhibition T4 10' 20 / % inhibition T4 10' 40 / % inhibition T4 10' 80: read at 10'; for % inhibition T4 70' 2.5 / % inhibition T4 70' 5 / % inhibition T4 70' 10 / % inhibition T4 70' 20 / % inhibition T4 70' 40 / % inhibition T4 70' 80: read at 70'; for % inhibition T4 130' 2.5 / % inhibition T4 130' 5 / % inhibition T4 130' 10 / % inhibition T4 130' 20 / % inhibition T4 130' 40 / % inhibition T4 130' 80: read at 130'; for % inhibition T4 40' 2.5 / % inhibition T4 40' 5 / % inhibition T4 40' 10 / % inhibition T4 40' 20 / % inhibition T4 40' 40 / % inhibition T4 40' 80: read at 40'; for % inhibition T4 90' 2.5 / % inhibition T4 90' 5 / % inhibition T4 90' 10 / % inhibition T4 90' 20 / % inhibition T4 90' 40 / % inhibition T4 90' 80: read at 90'; for % inhibition T4 180' 2.5 / % inhibition T4 180' 5 / % inhibition T4 180' 10 / % inhibition T4 180' 20 / % inhibition T4 180' 40 / % inhibition T4 180' 80: read at 180'
Procedure, shortened: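 IC50 values come from dose-response testing of each compound against T4 DNA polymerase. This B-family polymerase was purified in-house and used as the counter-screen.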

O=C(CSc1nnc(-c2ccco2)[nH]1)c1ccc(Cl)cc1 [KU0029065]
% inhibition T4 40' (DRC-2, concentration 10): 3%
% inhibition T4 40' (DRC-2, concentration 40): -2%
% inhibition T4 90' (DRC-2, concentration 2.5): -13%
% inhibition T4 90' (DRC-2, concentration 20): 3%
% inhibition T4 180' (DRC-2, concentration 2.5): -13%
% inhibition T4 180' (DRC-2, concentration 10): -2%

COc1ccc(C2CC(c3ccc(Cl)cc3Cl)Nc3nc(N)nn32)cc1OC (stereo not shown) [Molecule 43, COc1cc(ccc1OC)C1CC(Nc2n1nc(n2)N)c1ccc(cc1Cl)Cl]
% inhibition T4 10' 2.5 (DRC-1, concentration 2.5): 8.55%
% inhibition T4 10' 5 (DRC-1, concentration 5): 0.398%
% inhibition T4 10' 10 (DRC-1, concentration 10): 3.64%
% inhibition T4 10' 20 (DRC-1, concentration 20): 1.67%
% inhibition T4 10' 40 (DRC-1, concentration 40): 9%
% inhibition T4 10' 80 (DRC-1, concentration 80): 12%
% inhibition T4 70' 2.5 (DRC-1, concentration 2.5): 8%
% inhibition T4 70' 5 (DRC-1, concentration 5): 0.633%
% inhibition T4 70' 10 (DRC-1, concentration 10): 1.77%
% inhibition T4 70' 20 (DRC-1, concentration 20): 0.0404%
% inhibition T4 70' 40 (DRC-1, concentration 40): 8%
% inhibition T4 70' 80 (DRC-1, concentration 80): 9%
% inhibition T4 130' 2.5 (DRC-1, concentration 2.5): 7%
% inhibition T4 130' 5 (DRC-1, concentration 5): -0.436%
% inhibition T4 130' 10 (DRC-1, concentration 10): 0.362%
% inhibition T4 130' 20 (DRC-1, concentration 20): -1.3%
% inhibition T4 130' 40 (DRC-1, concentration 40): 6%
% inhibition T4 130' 80 (DRC-1, concentration 80): 8.47%
% inhibition T4 10' 2.5 (DRC-2, concentration 2.5): 3.49%
% inhibition T4 10' 5 (DRC-2, concentration 5): -2.24%
% inhibition T4 10' 10 (DRC-2, concentration 10): -1.16%
% inhibition T4 10' 20 (DRC-2, concentration 20): -2.26%
% inhibition T4 10' 40 (DRC-2, concentration 40): 0.721%
% inhibition T4 10' 80 (DRC-2, concentration 80): 0.788%
% inhibition T4 40' 2.5 (DRC-2, concentration 2.5): 2.64%
% inhibition T4 40' 5 (DRC-2, concentration 5): -2.79%
% inhibition T4 40' 10 (DRC-2, concentration 10): -1.88%
% inhibition T4 40' 20 (DRC-2, concentration 20): -2.36%
% inhibition T4 40' 40 (DRC-2, concentration 40): 1%
% inhibition T4 40' 80 (DRC-2, concentration 80): 0.512%
% inhibition T4 90' 2.5 (DRC-2, concentration 2.5): 2%
% inhibition T4 90' 5 (DRC-2, concentration 5): -3%
% inhibition T4 90' 10 (DRC-2, concentration 10): -0.792%
% inhibition T4 90' 20 (DRC-2, concentration 20): -3%
% inhibition T4 90' 40 (DRC-2, concentration 40): -0.348%
% inhibition T4 90' 80 (DRC-2, concentration 80): -1%
% inhibition T4 180' 2.5 (DRC-2, concentration 2.5): -2.47%
% inhibition T4 180' 5 (DRC-2, concentration 5): -8%
% inhibition T4 180' 10 (DRC-2, concentration 10): -5%
% inhibition T4 180' 20 (DRC-2, concentration 20): -7%
% inhibition T4 180' 40 (DRC-2, concentration 40): -4%
% inhibition T4 180' 80 (DRC-2, concentration 80): -2.58%

O=C(Cn1ccc2c(=O)[nH]ccc21)Nc1cc(F)ccc1F [Molecule 42, O=C(Cn1ccc2c1cc[nH]c2=O)Nc1cc(F)ccc1F]
% inhibition T4 10' (DRC-2, concentration 2.5): -1.82%
% inhibition T4 10' (DRC-2, concentration 5): -13%
% inhibition T4 10' (DRC-2, concentration 20): -4%
% inhibition T4 10' (DRC-2, concentration 80): -13%
% inhibition T4 40' (DRC-2, concentration 20): -4%
% inhibition T4 40' (DRC-2, concentration 80): -13%
% inhibition T4 180' (DRC-2, concentration 2.5): -1.82%
% inhibition T4 180' (DRC-2, concentration 80): -13%

COc1ccc(/C=C/c2cc(C(=O)O)c3ccccc3n2)cc1 [Molecule 5, COc1ccc(cc1)/C=C/c1nc2ccccc2c(c1)C(=O)O]
% inhibition T4 10' 2.5 (DRC-1, concentration 2.5): 1.081%
% inhibition T4 10' 5 (DRC-1, concentration 5): 5.185%
% inhibition T4 10' 10 (DRC-1, concentration 10): 0.5818%
% inhibition T4 10' 20 (DRC-1, concentration 20): -3.901%
% inhibition T4 10' 40 (DRC-1, concentration 40): -6.063%
% inhibition T4 10' 80 (DRC-1, concentration 80): 5.54%
% inhibition T4 70' 2.5 (DRC-1, concentration 2.5): -11.7738%
% inhibition T4 70' 5 (DRC-1, concentration 5): -0.8035%
% inhibition T4 70' 10 (DRC-1, concentration 10): 5.827%
% inhibition T4 70' 20 (DRC-1, concentration 20): 2.436%
% inhibition T4 70' 40 (DRC-1, concentration 40): 2.364%
% inhibition T4 70' 80 (DRC-1, concentration 80): 3.646%
% inhibition T4 130' 2.5 (DRC-1, concentration 2.5): -10.2066%
% inhibition T4 130' 5 (DRC-1, concentration 5): -1.2832%
% inhibition T4 130' 10 (DRC-1, concentration 10): 4.495%
% inhibition T4 130' 20 (DRC-1, concentration 20): 3.3008%
% inhibition T4 130' 40 (DRC-1, concentration 40): 3.939%
% inhibition T4 130' 80 (DRC-1, concentration 80): 6.199%
% inhibition T4 10' 2.5 (DRC-2, concentration 2.5): 4.49%
% inhibition T4 10' 5 (DRC-2, concentration 5): 7%
% inhibition T4 10' 10 (DRC-2, concentration 10): 18%
% inhibition T4 10' 20 (DRC-2, concentration 20): 21%
% inhibition T4 10' 40 (DRC-2, concentration 40): 24%
% inhibition T4 10' 80 (DRC-2, concentration 80): 17%
% inhibition T4 40' 2.5 (DRC-2, concentration 2.5): 4%
% inhibition T4 40' 5 (DRC-2, concentration 5): 8%
% inhibition T4 40' 10 (DRC-2, concentration 10): 18%
% inhibition T4 40' 20 (DRC-2, concentration 20): 27%
% inhibition T4 40' 40 (DRC-2, concentration 40): 31%
% inhibition T4 40' 80 (DRC-2, concentration 80): 26%
% inhibition T4 90' 2.5 (DRC-2, concentration 2.5): 3%
% inhibition T4 90' 5 (DRC-2, concentration 5): 6.33%
% inhibition T4 90' 10 (DRC-2, concentration 10): 16%
% inhibition T4 90' 20 (DRC-2, concentration 20): 25%
% inhibition T4 90' 40 (DRC-2, concentration 40): 29%
% inhibition T4 90' 80 (DRC-2, concentration 80): 27%
% inhibition T4 180' 2.5 (DRC-2, concentration 2.5): -3.34%
% inhibition T4 180' 5 (DRC-2, concentration 5): 0.194%
% inhibition T4 180' 10 (DRC-2, concentration 10): 10%
% inhibition T4 180' 20 (DRC-2, concentration 20): 18%
% inhibition T4 180' 40 (DRC-2, concentration 40): 25%
% inhibition T4 180' 80 (DRC-2, concentration 80): 24%

O=c1[nH]c2ccc([N+](=O)[O-])cc2c(-c2ccccc2)c1Sc1nc2ccccc2o1 [KU0067471]
% inhibition T4 10' (DRC-2, concentration 10): 35%
% inhibition T4 10' (DRC-2, concentration 20): 35%
% inhibition T4 40' (DRC-2, concentration 10): 36%
% inhibition T4 40' (DRC-2, concentration 40): 48%
% inhibition T4 40' (DRC-2, concentration 80): 47%
% inhibition T4 90' (DRC-2, concentration 2.5): 11%
% inhibition T4 90' (DRC-2, concentration 20): 36%
% inhibition T4 90' (DRC-2, concentration 40): 47%
% inhibition T4 90' (DRC-2, concentration 80): 48%
% inhibition T4 180' (DRC-2, concentration 5): 11%
% inhibition T4 180' (DRC-2, concentration 80): 47%
